Experimental data from ChEMBL document CHEMBL1201862, “PubChem BioAssay data set” (2004).
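96-well plates; 48 h exposure; 5 concentrations. Endpoints by linear interpolation between flanking doses. Not reached: highest tested concentration assigned. Abbreviation: GI50, concentration required for 50% inhibition of growth.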 The source made the active and inactive calls. Cut-off read from the data, not from the text of the source: active = GI50 up to about 1.1 µM and inactive = higher.

Key:
Assay in all cases: growth of human tumour cells (NCI), 48 h
HCT-15 = tested on: HCT-15
SR = tested on: SR
U-251 = tested on: U-251
A498 = tested on: A498
Malme-3M = tested on: Malme-3M
UACC-62 = tested on: UACC-62
DLD-1 = tested on: DLD-1
IGROV-1 = tested on: IGROV-1
NCI-H460 = tested on: NCI-H460
HOP-62 = tested on: HOP-62
COLO 205 = tested on: COLO 205
HCC 2998 = tested on: HCC 2998
UO-31 = tested on: UO-31
RXF 393 = tested on: RXF 393
MOLT-4 = tested on: MOLT-4
HL-60 = tested on: HL-60
CAKI-1 = tested on: CAKI-1
SK-MEL-2 = tested on: SK-MEL-2
RPMI-8226 = tested on: RPMI-8226
DMS-114 = tested on: DMS-114
OVCAR-8 = tested on: OVCAR-8
OVCAR-4 = tested on: OVCAR-4
DMS-273 = tested on: DMS-273
KM-20L2 = tested on: KM-20L2
SW-620 = tested on: SW-620
SF-539 = tested on: SF-539
K562 = tested on: K562
SK-OV-3 = tested on: SK-OV-3
M14 = tested on: M14
SNB-19 = tested on: SNB-19
LXFL 529 = tested on: LXFL 529
HCT-116 = tested on: HCT-116
TK-10 = tested on: TK-10
HOP-18 = tested on: HOP-18
KM12 = tested on: KM12
A549 = tested on: A549
SNB-75 = tested on: SNB-75
SK-MEL-5 = tested on: SK-MEL-5
SNB-78 = tested on: SNB-78
UACC-257 = tested on: UACC-257
CCRF-CEM = tested on: CCRF-CEM
M19-MEL = tested on: M19-MEL
RXF 631 = tested on: RXF 631
NCI-H226 = tested on: NCI-H226
SN12C = tested on: SN12C
ACHN = tested on: ACHN
786-0 = tested on: 786-0
OVCAR-3 = tested on: OVCAR-3
SK-MEL-28 = tested on: SK-MEL-28
SF-268 = tested on: SF-268
NCI-H522 = tested on: NCI-H522
NCI-H23 = tested on: NCI-H23
OVCAR-5 = tested on: OVCAR-5
SF-295 = tested on: SF-295
XF498 = tested on: XF498
LOX IMVI = tested on: LOX IMVI
EKVX = tested on: EKVX
HT-29 = tested on: HT-29

With C[N+](C)=c1nc(N2CCc3ccccc3C2)ss1.[O-][Cl+3]([O-])([O-])[O-] the GI50 (HCT-15) was 98.2 µM, the GI50 (SR) was 54.5 µM (inactive) and the GI50 (U-251) was > 100 µM (inactive). The GI50 (A498) was > 100 µM (inactive), the GI50 (Malme-3M) was > 100 µM (inactive) and the GI50 (UACC-62) was > 100 µM (inactive). For the same molecule, the GI50 (DLD-1) was 90.4 µM (inactive), the GI50 (IGROV-1) was > 100 µM (inactive) and the GI50 (NCI-H460) was > 100 µM (inactive). The GI50 (HOP-62) was > 100 µM (inactive), the GI50 (COLO 205) was 42.8 µM (inactive) and the GI50 (HCC 2998) was > 100 µM (inactive). For the same molecule, the GI50 (UO-31) was > 100 µM (inactive), the GI50 (RXF 393) was 77.4 µM (inactive) and the GI50 (MOLT-4) was 30.7 µM (inactive). The GI50 (HL-60) was 34.2 µM (inactive), the GI50 (CAKI-1) was > 100 µM (inactive) and the GI50 (SK-MEL-2) was > 100 µM (inactive). For the same molecule, the GI50 (RPMI-8226) was 69.8 µM (inactive), the GI50 (DMS-114) was 60.1 µM (inactive) and the GI50 (OVCAR-8) was > 100 µM (inactive). For the same molecule, the GI50 (OVCAR-4) was > 100 µM (inactive), the GI50 (DMS-273) was > 100 µM (inactive) and the GI50 (KM-20L2) was > 100 µM (inactive). The GI50 (SW-620) was > 100 µM (inactive), the GI50 (SF-539) was > 100 µM (inactive) and the GI50 (K562) was > 100 µM (inactive). The GI50 (SK-OV-3) was > 100 µM (inactive), the GI50 (M14) was > 100 µM (inactive) and the GI50 (SNB-19) was > 100 µM (inactive). For the same molecule, the GI50 (LXFL 529) was 69.3 µM (inactive), the GI50 (HCT-116) was 81.3 µM (inactive) and the GI50 (TK-10) was > 100 µM (inactive). The GI50 (HOP-18) was > 100 µM (inactive), the GI50 (KM12) was > 100 µM (inactive) and the GI50 (A549) was > 100 µM (inactive). The GI50 (SNB-75) was 83.6 µM (inactive), the GI50 (SK-MEL-5) was > 100 µM (inactive) and the GI50 (SNB-78) was > 100 µM (inactive). The GI50 (UACC-257) was > 100 µM (inactive), the GI50 (CCRF-CEM) was 82.8 µM (inactive) and the GI50 (M19-MEL) was > 100 µM (inactive). The GI50 (RXF 631) was > 100 µM (inactive), the GI50 (NCI-H226) was > 100 µM (inactive) and the GI50 (SN12C) was > 100 µM (inactive). For the same molecule, the GI50 (ACHN) was > 100 µM (inactive), the GI50 (786-0) was > 100 µM (inactive) and the GI50 (OVCAR-3) was 82 µM (inactive). For the same molecule, the GI50 (SK-MEL-28) was > 100 µM (inactive), the GI50 (SF-268) was > 100 µM (inactive) and the GI50 (NCI-H522) was > 100 µM (inactive).
With CCOC(=O)C1S/C(=N\c2ccc(Cl)c(Cl)c2)N=C1C (centres undefined) the GI50 (HCT-15) was 20.8 µM, the GI50 (U-251) was 48.3 µM (inactive) and the GI50 (A498) was 26 µM (inactive). For the same molecule, the GI50 (Malme-3M) was 51.6 µM (inactive), the GI50 (UACC-62) was 96.8 µM (inactive) and the GI50 (NCI-H23) was 36.7 µM (inactive). The GI50 (DLD-1) was 25.1 µM (inactive), the GI50 (IGROV-1) was 48.8 µM (inactive) and the GI50 (NCI-H460) was 49.8 µM (inactive). For the same molecule, the GI50 (HOP-62) was 56.9 µM (inactive), the GI50 (COLO 205) was 29 µM (inactive) and the GI50 (HCC 2998) was > 100 µM (inactive). The GI50 (UO-31) was 92.9 µM (inactive), the GI50 (OVCAR-5) was 44.1 µM (inactive) and the GI50 (SF-295) was 29.7 µM (inactive). For the same molecule, the GI50 (RXF 393) was 13 µM (inactive), the GI50 (MOLT-4) was 18.8 µM (inactive) and the GI50 (HL-60) was 20.4 µM (inactive). For the same molecule, the GI50 (XF498) was 35.6 µM (inactive), the GI50 (CAKI-1) was 35.1 µM (inactive) and the GI50 (SK-MEL-2) was 95.1 µM (inactive). For the same molecule, the GI50 (RPMI-8226) was 17.8 µM (inactive), the GI50 (OVCAR-8) was 35.4 µM (inactive) and the GI50 (OVCAR-4) was 20.3 µM (inactive). For the same molecule, the GI50 (DMS-273) was 41.2 µM (inactive), the GI50 (KM-20L2) was 20.9 µM (inactive) and the GI50 (SW-620) was 38 µM (inactive). The GI50 (SF-539) was 34 µM (inactive), the GI50 (K562) was 13.4 µM (inactive) and the GI50 (SK-OV-3) was 53.8 µM (inactive). For the same molecule, the GI50 (M14) was 34.6 µM (inactive), the GI50 (SNB-19) was 45.6 µM (inactive) and the GI50 (LXFL 529) was 34.4 µM (inactive). For the same molecule, the GI50 (LOX IMVI) was 23.4 µM (inactive), the GI50 (TK-10) was 76.7 µM (inactive) and the GI50 (HOP-18) was 96.8 µM (inactive). For the same molecule, the GI50 (KM12) was 27.9 µM (inactive), the GI50 (A549) was 28.4 µM (inactive) and the GI50 (SNB-75) was 29.9 µM (inactive). The GI50 (UACC-257) was 87.1 µM (inactive), the GI50 (CCRF-CEM) was 13.2 µM (inactive) and the GI50 (M19-MEL) was 26.2 µM (inactive). For the same molecule, the GI50 (EKVX) was > 100 µM (inactive), the GI50 (RXF 631) was 58.6 µM (inactive) and the GI50 (HT-29) was 19.7 µM (inactive). For the same molecule, the GI50 (NCI-H226) was 23.4 µM (inactive), the GI50 (SN12C) was 19.6 µM (inactive) and the GI50 (ACHN) was 29.5 µM (inactive). For the same molecule, the GI50 (786-0) was 17.5 µM (inactive), the GI50 (OVCAR-3) was 17.9 µM (inactive) and the GI50 (SK-MEL-28) was 73.8 µM (inactive). The GI50 (SF-268) was 54.6 µM (inactive) and the GI50 (NCI-H522) was 24.7 µM (inactive).
